{"source": "patent US20160058712A1", "about": "“3-HYDROXYPTEROSTILBENE AND THERAPEUTIC APPLICATIONS THEREOF” (priority 2014, published 2016)", "key": {"[1]": {"system": "Bcl-xL and Bax in PC-3 cells", "assay": "Western blot of Bcl-xL and Bax expression", "assay_type": "cell-based, human", "details": "PC-3, 10 μM, different time intervals"}, "[2]": {"system": "multi drug resistant and BCR-ABL-expressing leukemia cells", "details": "Tolomeo et al. 2005; cited from earlier work"}, "[3]": {"system": "LC3 I/II in COLO 205 cells", "assay": "Western blotting of LC3 I/II expression", "assay_type": "cell-based, human", "details": "COLO 205, 50 μM, 24 hours, compared to pterostilbene", "procedure": "(§1) Western blotting analysis was performed as follows. The total proteins of COLO 205 cells were extracted via addition of gold lysis buffer (50 mM TrisHCl, pH 7.4; 1 mM NaF; 150 mM NaCl; 1 mM EGTA; 1 mM phenylmethanesulfonyl fluoride; 1% NP40; and 10 μg/mL leupeptin) to the cell pellets on ice for 30 min, followed by centrifugation at 10,000×g for 30 min at 4° C. The total proteins were measured by BioRad Protein Assay (BioRad Laboratories, Munich, Germany). The samples (50 μg of protein) were mixed with 5× sample buffer containing 0.3 M TrisHCl (pH 6.8), 25% 2mercaptoethanol, 12% sodium dodecyl sulfate (SDS), 25 mM EDTA, 20% glycerol, and 0.1% bromophenol blue. The mixtures were boiled at 100° C. for 5 min and were subjected to 10% SDS polyacrylamide minigels at a constant current of 20 mA. Electrophoresis was then carried out on SDSpolyacrylaniide gels. […] The transferred proteins were visualized with an enhanced chemi-luminescence detection kit (ECL Amersham Pharmacia Biotech, Buckinghamshire, UK). The densities of the bands were quantified with a computer densitometer (AlphaImager™ 2200 System Alpha densitometer. Innotech Corporation, San Leandro, Calif.). […]\n(§2) COLO 205 cells were treated with 50 μM pterostilbene or 3-hydroxypterostilbene for 24 hours. Cell lysates were prepared after 24 h treatment and the protein expression of LC3 were analyzed by Western blotting."}, "[4]": {"system": "caspase 3, 8 and 9 in PC-3 cells", "assay": "Fluorometric caspase 3, 8 and 9 activity in PC-3 cells", "assay_type": "cell-based, human", "details": "PC-3, 0-20 μM, 48 hours"}, "PC-3 cells [5]": {"system": "PC-3 cells", "assay": "Mitochondrial membrane potential by DiOC6 flow cytometry in PC-3 cells", "assay_type": "cell-based, human", "details": "PC-3, 10 and 20 μM, 48 hr", "procedure": "As a measure of down-stream check points in the mammalian apoptotic pathways, the potential of 3-HPT to cause mitochondrial dysfunction and activation of the caspase pathways was further evaluated. PC-3 cells were cultured in serum-free RPMI containing 0, 2.5, 5, 10, or 20 μM of 3-HPT for 48 hr, respectively. Then, cells were stained with DiOC6 and analyzed by flow cytometry."}, "HT-29 cells": {"system": "HT-29 cells", "assay": "MTT cell viability assay, HT29", "assay_type": "cell-based", "details": "Homo sapiens; HT-29, MTT, 24 h", "procedure": "The human colon cancer cell lines COLO 205, HCT116 and HT29 were purchased from the American Type Culture Collection (Rockville, Md.). Cell lines were grown in RPMI1640 supplemented with 10% heat inactivated fetal bovine serum (GIBCO BRL, Grand Island, N.Y.), 100 units/mL of penicillin, 100 μg/mL of streptomycin), 2 mM L-glutamine (GIBCO BRL, Grand Island, N.Y.), and were kept at 37° C. in a humidified 5% CO2 incubator. Pterostilbene and 3-HPT were dissolved in dimethyl sulfoxide (DMSO, as final concentration of 0.05%). Cells were treated with 0.05% DMSO as vehicle control.\nCell viability was assayed by 3(4,5-dimethylthiazol-2-yl)-2,5-diphenyltetrazolium bromide (MTT). Briefly. COLO 205, HCT116 and HT29 cells were plated at a density of 2×10^2 cells/mL into 96 well plates. After overnight growth, cells were treated with a series of concentrations of pterostilbene or 3-hydroxypterostilbene for 24 h. The final concentrations of DMSO in the culture medium were <0.05%. At the end of treatment, 0.2% MTT was added and cells were incubated for a further 4 h. Cell viability was determined by scanning with an ELISA reader with a 570 nm filter."}, "PC-3 cells [6]": {"system": "PC-3 cells", "assay": "Detection of autophagy (GFP-LC3 autophagosomes, Beclin-1/LC3 Western blot)", "assay_type": "cell-based, human", "details": "PC-3, 10 μM", "procedure": "Photographs were obtained with a fluorescence microscope (Axioscop, Carl Zeiss, Thomwood, N.Y.) equipped with a mercury 100 W lamp, 490 nm band pass blue excitation filters, a 500 nm dichroic mirror and a 515 nm long pass barrier filter. The autophagy induced by 3-HPT in PC-3 cells was also further confirmed by the Western Blotting analysis of Beclin-1, LC3-I, LC3-II, Actin protein expression in PC-3 cells after 10 μM 3-HPT treatment at different time intervals (FIG. 9). The following conclusions were drawn based on aforesaid experimental studies. • 1. […] 3-Hydroxypterostilbene induced the intrinsic apoptotic pathway and extrinsic apoptotic pathway in PC-3 cells. • 3. […] 3′-Hydroxypterostilbene has significant therapeutic potential for the treatment of human prostate cancer."}, "COLO 205 cells": {"system": "COLO 205 cells", "assay": "Chloroquine (CQ) pretreatment, MTT viability and subG1 analysis", "assay_type": "cell-based", "details": "COLO 205, 25 μM CQ 1 h then 50 μM for 24 h", "procedure": "Cells were pretreated with 25 μM CQ for 1 h before treatment with 50 μM of pterostilbene or 3-hydroxypterostilbene for 24 h. Cell viability was determined by MTT assay. SubG1 cell population (%) was analyzed and quantified after Propidium iodide (PI) staining followed by flow cytometry."}, "[7]": {"system": "PI3K/Akt, MAPKs and mTOR signaling in COLO 205 cells", "assay": "Western blotting of mTOR/p70S6K, PI3K/Akt and MAPKs signaling", "assay_type": "cell-based, human", "details": "COLO 205, 50 μM, 24 hours", "procedure": "as §1, §2"}, "PC-3 cells [8]": {"system": "PC-3 cells", "assay": "DNA fragmentation by agarose gel electrophoresis", "assay_type": "cell-based, human", "details": "PC-3, 0-20 μM, 48 hr, 2.0% agarose gel"}, "PC-3 cells [9]": {"system": "PC-3 cells", "assay": "Flow cytometry analysis of subG1 cell population in PC-3 cells", "assay_type": "cell-based, human", "details": "PC-3, 0-20 μM, 48 hr", "procedure": "PC-3 cells were cultured in serum-free RPMI containing 0, 2.5, 5, 10, or 20 μM of 3-HPT for 48 hr followed by flow cytometric analysis."}}, "data": [{"smiles": "COc1cc(/C=C/c2ccc(O)c(O)c2)cc(OC)c1", "note": "[3-hydroxypterostilbene, 3,4-dihydroxy-3′,5′-dimethoxy-trans-stilbene]", "values": [{"measurement": "Bax (pro-apoptotic protein) expression", "setting": "[1]", "value": "upregulates"}, {"measurement": "Bcl-xL (anti-apoptotic protein) expression", "setting": "[1]", "value": "clearly down-regulates"}, {"measurement": "apoptosis induction in leukemia cells", "setting": "[2]", "value": "effective apoptosis-inducing agents"}, {"measurement": "protein LC3 I/II expression", "setting": "[3]", "value": "Enhanced protein LC3 I/II expression"}, {"measurement": "caspases activity (caspase 3, 8 and 9)", "setting": "[4]", "value": "initiation of caspases activity"}, {"measurement": "mitochondrial membrane potential", "setting": "PC-3 cells [5]", "value": "significant reduction"}, {"measurement": "IC50", "setting": "HT-29 cells", "value": "70.9 ± 1", "unit": "µM"}, {"measurement": "autophagy (Beclin-1, LC3 expression, autophagosome formation)", "setting": "PC-3 cells [6]", "value": "induced autophagic cell death by increasing the Beclin-1, LC3 protein expression and autophagosome formation"}, {"measurement": "cytotoxicity after CQ pretreatment", "setting": "COLO 205 cells", "value": "significant increase cytotoxicity"}, {"measurement": "PI3K/Akt and MAPKs signalings, phosphorylation of mTOR", "setting": "[7]", "value": "significantly down regulated"}, {"measurement": "DNA fragmentation", "setting": "PC-3 cells [8]", "value": "indicated apoptotic cells death"}, {"measurement": "percentage of apoptotic cells (subG1)", "setting": "PC-3 cells [9]", "value": "increasing percentage of apoptotic cells over increasing concentrations"}]}]}
